Reference: ChEMBL document CHEMBL6083240, “Design, synthesis and biological evaluation of arylpropylamine derivatives as potential multi-target antidepressants” (Bioorg Med Chem, 2024)
The source made the active and inactive calls. The rule behind the calls is not given here.

Experiments:
Transporter [1] = biological target: T1, Transporter (Rattus norvegicus, UniProt Q63380); test: Binding affinity to rat NET
[2] = biological target: Sodium-dependent serotonin transporter (Rattus norvegicus, UniProt P31652); test: Displacement of [3H]-paroxetine from SERT in rat cerebral cortex incubated for 10 mins by liquid scintillation counting method; type: tissue-based
Transporter [3] = biological target: T1, Transporter; test: Displacement of [3H]-nisoxetine from NET in rat hippocampal membrane incubated for 8 hrs by liquid scintillation counting method; type: cell membranes, Hippocampus
Mus musculus [4] = test: Antidepressant activity in Kunming mouse chronic unpredictable mild stress model assessed as increase in sucrose preference at 20 mg/kg, IG measured after 1 to 3 weeks; type: functional, organism-based; conditions: time 1-3 weeks
[5] = biological target: 5-hydroxytryptamine receptor 2A (Rattus norvegicus, UniProt P14842); test: Displacement of [3H]-ketanserin from 5-HT2A in rat cerebral cortex incubated for 15 mins by liquid scintillation counting method; type: tissue-based
[6] = biological target: T2, 5-hydroxytryptamine receptor 2C (Rattus norvegicus, UniProt P08909); test: Displacement of [3H]-mesulergine from 5-HT2C in rat cerebral cortex incubated for 15 mins by liquid scintillation counting method; type: tissue-based
T2 sequence (P08909 whole entry): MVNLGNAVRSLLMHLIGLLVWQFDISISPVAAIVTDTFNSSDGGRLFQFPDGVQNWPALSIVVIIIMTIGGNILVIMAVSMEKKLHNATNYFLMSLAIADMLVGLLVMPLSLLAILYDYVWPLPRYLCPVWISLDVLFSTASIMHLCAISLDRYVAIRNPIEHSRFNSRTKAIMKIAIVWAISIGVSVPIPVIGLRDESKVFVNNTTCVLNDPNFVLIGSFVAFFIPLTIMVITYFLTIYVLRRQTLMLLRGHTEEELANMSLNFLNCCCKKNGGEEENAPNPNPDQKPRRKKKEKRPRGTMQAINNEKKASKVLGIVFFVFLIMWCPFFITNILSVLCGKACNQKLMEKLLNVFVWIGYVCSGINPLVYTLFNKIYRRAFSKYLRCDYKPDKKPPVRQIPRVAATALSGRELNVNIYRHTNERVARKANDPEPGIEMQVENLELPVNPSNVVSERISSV

[7] = biological target: T3, Alpha-1A adrenergic receptor (Rattus norvegicus, UniProt P43140); test: Displacement of [3H]-prazosin from adrenergic alpha-1 receptor in rat cerebral cortex incubated for 60 mins by liquid scintillation counting method; type: toxicity, tissue-based
T3 sequence (P43140 whole entry): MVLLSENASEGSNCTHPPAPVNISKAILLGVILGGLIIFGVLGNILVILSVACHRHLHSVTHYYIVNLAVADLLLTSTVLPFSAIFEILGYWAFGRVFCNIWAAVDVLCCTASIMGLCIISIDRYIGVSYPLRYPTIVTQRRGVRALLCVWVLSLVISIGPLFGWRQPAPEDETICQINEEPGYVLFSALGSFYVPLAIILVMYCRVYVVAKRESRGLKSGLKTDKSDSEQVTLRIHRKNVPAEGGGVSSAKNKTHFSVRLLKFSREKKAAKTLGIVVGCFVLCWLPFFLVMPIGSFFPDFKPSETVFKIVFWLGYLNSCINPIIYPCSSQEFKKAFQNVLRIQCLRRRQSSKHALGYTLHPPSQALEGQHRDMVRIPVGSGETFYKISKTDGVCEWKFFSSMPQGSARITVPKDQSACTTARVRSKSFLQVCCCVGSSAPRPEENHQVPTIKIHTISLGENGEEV

histamine H1 receptor = test: Displacement of [3H]-pyrilamine from H1 receptor in guinea pig cerebellum membrane incubated for 60 mins by liquid scintillation counting method; type: toxicity, cell membranes, Cavia porcellus; conditions: probe [3H]-pyrilamine
[8] = biological target: Voltage-gated inwardly rectifying potassium channel KCNH2 (Homo sapiens, UniProt Q12809); test: Inhibition of human ERG expressed in HEK293 cells by whole-cell patch clamp method; type: toxicity, cell-based
[9] = Acute toxicity in po dosed Sprague-Dawley rat assessed as mortality rate measured after 24 hrs; type: organism-based; conditions: in vivo
Mus musculus [10] = test: Antidepressant activity in IG dosed Kunming mouse assessed as decrease in immobility time by measuring minimal effective dose by forced swimming test; type: functional
Mus musculus [11] = test: Antidepressant activity in IG dosed Kunming mouse assessed as decrease in immobility time by measuring minimal effective dose by tail suspension test; type: functional
[12] = In vivo inhibition of 5-HT2A in po dosed DOI-induced Kunming mouse assessed as reduction in head twitch response pretreated for 60 mins followed by DOI induction and measured for 20 mins; type: functional; conditions: 1.333 h, time 80 min

T1 sequence (Q63380 whole entry): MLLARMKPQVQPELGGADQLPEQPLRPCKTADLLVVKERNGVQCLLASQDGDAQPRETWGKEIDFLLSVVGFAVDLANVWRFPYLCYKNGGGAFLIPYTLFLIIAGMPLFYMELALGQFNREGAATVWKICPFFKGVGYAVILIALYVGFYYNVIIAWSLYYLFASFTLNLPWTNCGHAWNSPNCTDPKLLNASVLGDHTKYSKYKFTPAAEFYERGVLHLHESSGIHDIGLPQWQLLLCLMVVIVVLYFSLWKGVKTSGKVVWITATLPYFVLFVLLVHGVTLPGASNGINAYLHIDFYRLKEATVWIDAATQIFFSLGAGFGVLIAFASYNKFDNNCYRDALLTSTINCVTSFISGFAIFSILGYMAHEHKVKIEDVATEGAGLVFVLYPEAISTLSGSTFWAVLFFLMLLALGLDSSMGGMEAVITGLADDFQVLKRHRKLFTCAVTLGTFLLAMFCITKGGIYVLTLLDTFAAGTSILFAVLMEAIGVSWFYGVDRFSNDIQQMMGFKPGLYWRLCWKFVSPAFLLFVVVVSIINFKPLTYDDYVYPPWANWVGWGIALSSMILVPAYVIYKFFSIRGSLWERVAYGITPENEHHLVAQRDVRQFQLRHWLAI
Sodium-dependent serotonin transporter, sequence (P31652 whole entry): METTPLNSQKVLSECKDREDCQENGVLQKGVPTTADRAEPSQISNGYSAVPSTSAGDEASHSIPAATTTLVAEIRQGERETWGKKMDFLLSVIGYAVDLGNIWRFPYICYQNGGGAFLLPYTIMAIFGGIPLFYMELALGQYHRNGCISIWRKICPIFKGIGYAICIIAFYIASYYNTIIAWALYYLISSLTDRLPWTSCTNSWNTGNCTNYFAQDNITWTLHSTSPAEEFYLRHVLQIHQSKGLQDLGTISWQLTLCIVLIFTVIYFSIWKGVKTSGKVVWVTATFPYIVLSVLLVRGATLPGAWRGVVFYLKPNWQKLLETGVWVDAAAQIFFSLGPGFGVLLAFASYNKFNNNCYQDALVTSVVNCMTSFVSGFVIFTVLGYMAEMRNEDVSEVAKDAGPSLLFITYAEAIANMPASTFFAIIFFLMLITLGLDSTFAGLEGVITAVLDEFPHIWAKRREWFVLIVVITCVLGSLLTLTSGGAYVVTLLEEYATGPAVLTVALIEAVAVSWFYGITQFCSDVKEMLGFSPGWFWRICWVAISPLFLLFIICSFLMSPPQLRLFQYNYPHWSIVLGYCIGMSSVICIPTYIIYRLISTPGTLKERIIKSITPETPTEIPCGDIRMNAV
Voltage-gated inwardly rectifying potassium channel KCNH2, sequence (Q12809 whole entry): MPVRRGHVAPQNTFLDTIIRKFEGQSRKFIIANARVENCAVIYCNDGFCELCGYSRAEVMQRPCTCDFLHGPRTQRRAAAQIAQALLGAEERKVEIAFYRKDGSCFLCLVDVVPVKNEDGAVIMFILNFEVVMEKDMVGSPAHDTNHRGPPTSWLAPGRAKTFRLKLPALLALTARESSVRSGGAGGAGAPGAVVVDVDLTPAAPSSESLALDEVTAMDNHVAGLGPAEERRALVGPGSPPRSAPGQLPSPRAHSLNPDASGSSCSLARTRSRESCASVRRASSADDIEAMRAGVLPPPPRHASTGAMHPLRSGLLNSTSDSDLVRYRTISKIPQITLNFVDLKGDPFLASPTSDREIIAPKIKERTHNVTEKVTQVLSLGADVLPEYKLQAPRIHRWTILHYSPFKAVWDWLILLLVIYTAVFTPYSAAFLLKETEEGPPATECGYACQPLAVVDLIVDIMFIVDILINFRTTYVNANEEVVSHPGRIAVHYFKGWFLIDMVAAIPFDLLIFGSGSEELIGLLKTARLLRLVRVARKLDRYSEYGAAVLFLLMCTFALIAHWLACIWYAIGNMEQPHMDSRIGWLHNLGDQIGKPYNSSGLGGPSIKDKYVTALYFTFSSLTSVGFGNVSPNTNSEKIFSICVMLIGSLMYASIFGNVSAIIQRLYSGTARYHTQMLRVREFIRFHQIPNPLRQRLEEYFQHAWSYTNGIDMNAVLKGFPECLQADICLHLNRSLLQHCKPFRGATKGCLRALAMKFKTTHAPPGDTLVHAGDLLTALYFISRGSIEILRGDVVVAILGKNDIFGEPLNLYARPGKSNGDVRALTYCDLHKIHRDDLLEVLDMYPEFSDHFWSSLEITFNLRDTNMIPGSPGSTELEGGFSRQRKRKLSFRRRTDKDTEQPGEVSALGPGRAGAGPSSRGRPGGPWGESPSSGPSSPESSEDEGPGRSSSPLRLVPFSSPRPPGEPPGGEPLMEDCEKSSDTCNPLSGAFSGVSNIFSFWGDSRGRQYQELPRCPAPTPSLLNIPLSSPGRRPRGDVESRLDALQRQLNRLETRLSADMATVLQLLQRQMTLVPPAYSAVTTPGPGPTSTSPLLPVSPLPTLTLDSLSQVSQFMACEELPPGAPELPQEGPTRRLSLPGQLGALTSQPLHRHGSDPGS
5-hydroxytryptamine receptor 2A, sequence (P14842 whole entry): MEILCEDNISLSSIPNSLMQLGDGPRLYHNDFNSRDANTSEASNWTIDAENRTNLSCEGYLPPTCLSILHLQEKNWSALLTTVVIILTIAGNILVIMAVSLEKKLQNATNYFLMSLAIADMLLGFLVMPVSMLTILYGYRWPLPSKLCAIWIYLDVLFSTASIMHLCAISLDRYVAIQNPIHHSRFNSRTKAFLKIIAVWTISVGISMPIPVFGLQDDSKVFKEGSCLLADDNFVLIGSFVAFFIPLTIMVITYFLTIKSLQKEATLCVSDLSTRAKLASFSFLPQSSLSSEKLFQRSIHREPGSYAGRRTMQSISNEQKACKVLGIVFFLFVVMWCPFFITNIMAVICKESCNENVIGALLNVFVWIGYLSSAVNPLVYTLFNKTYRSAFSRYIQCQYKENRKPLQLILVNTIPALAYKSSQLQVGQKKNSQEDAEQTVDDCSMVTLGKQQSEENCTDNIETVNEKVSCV

SMILES	Ki [2] [nM]	Ki (Transporter [3]) [nM]	further results
CCc1nn(CCCN2CCN(c3cccc(Cl)c3)CC2)c(=O)n1CCOc1ccccc1 [NEFAZODONE]	–	–	Ki (Transporter [1]): 555 nM
CNCCC(Oc1cccc2c1OCO2)c1ccccc1OC (configuration not stated)	64.2	30.2	–
CNCCC(Oc1cccc2c1OCO2)c1ccc(Cl)c(Cl)c1 (configuration not stated)	43.6	15	–
CN(C)CCC(Oc1cccc2c1OCO2)c1ccccc1 (configuration not stated)	98.4	29.4	–
COc1ccc(C(CCN(C)C)Oc2cccc3c2OCO3)cc1 (configuration not stated)	189	218	–
CNCCC(Oc1ccc(C(F)(F)F)cc1)c1ccccc1 (configuration not stated)	–	–	Activity (Mus musculus [4]): inactive
CNCCC(Oc1cccc2c1OCO2)c1ccc(C(F)(F)F)cc1 (configuration not stated)	74.1	31.1	–
Cc1cccc(C(CCN(C)C)Oc2cccc3c2OCO3)c1 (configuration not stated)	159	214	–
CN(C)CC[C@H](Oc1cccc2c1OCO2)c1ccc(F)cc1	3.3	12.7	Ki [5]: 57.7 nM; Ki [6]: 71.2 nM; Ki [7]: 988 nM; Ki at 60 min (histamine H1 receptor): 823 nM; IC50 [8]: 907 nM
Cc1ccc(C(CCN(C)C)Oc2cccc3c2OCO3)cc1 (configuration not stated)	69.7	195	–
CNCCC(Oc1cccc2c1OCO2)c1ccccc1C (configuration not stated)	41.2	13.9	–
CN(C)CCC(Oc1cccc2c1OCO2)c1ccc(Cl)c(Cl)c1 (configuration not stated)	189	253	–
CNCCC(Oc1cccc2c1OCO2)c1ccc(F)cc1 (configuration not stated)	68.6	5.4	–
CNCCC(Oc1cccc2c1OCO2)c1ccc(OC)c(OC)c1 (configuration not stated)	217	19.9	–
COc1cccc(C(CCN(C)C)Oc2cccc3c2OCO3)c1 (configuration not stated)	203	268	–
CNCCC(Oc1cccc2c1OCO2)c1cccc(OC)c1 (configuration not stated)	48.2	11.1	–
CN(C)CCC(Oc1cccc2c1OCO2)c1ccc(C(F)(F)F)cc1 (configuration not stated)	182	124	–
CN(C)CCC(Oc1cccc2c1OCO2)c1ccccc1Cl (configuration not stated)	29.7	19.5	–
CN(C)CCC(Oc1cccc2c1OCO2)c1ccc(F)cc1 (configuration not stated)	4.2	2.8	Ki [5]: 35.3 nM; Ki [6]: 29.6 nM; Ki [7]: 1240 nM; Ki at 60 min (histamine H1 receptor): 937 nM; IC50 [8]: 1110 nM
CNCCC(Oc1cccc2c1OCO2)c1ccc2c(c1)OCO2 (configuration not stated)	32.8	28.4	–
CNCC[C@H](Oc1cccc2ccccc12)c1cccs1 [DULOXETINE]	–	–	LD50 at 24 h [9]: 279 mg/kg; Ki [5]: 1240 nM; Ki [6]: 2470 nM; Ki [7]: 1010 nM; Ki at 60 min (histamine H1 receptor): 1270 nM; Activity (Mus musculus [10]): Dose-dependent-effect; minimal effective dose (Mus musculus [10]; po, read-out: MED): 16 mg/kg; Activity (Mus musculus [11]): Dose-dependent-effect; minimal effective dose (Mus musculus [11]; po, read-out: MED): 16 mg/kg; ED50 [12]: 30.9 mg/kg
CN(C)CCC(Oc1cccc2c1OCO2)c1ccccc1F (configuration not stated)	28	17.2	–
CNCCC(Oc1cccc2c1OCO2)c1ccccc1 (configuration not stated)	19.8	4.2	Ki [5]: 156 nM; Ki [6]: 134 nM; Ki [7]: 992 nM; Ki at 60 min (histamine H1 receptor): 669 nM; IC50 [8]: 818 nM
